Where “and” joins values, the source holds several entries; their conditions need not be identical. Identical values can stand only once. Like-named read-outs stand apart in the source and are kept apart here.
How the values were obtained:
[1] = system: inflammation; details: cited from earlier work
[2] = system: prostaglandin synthetase (cyclooxygenase); details: Flower, Pharmacol. Rev. 26:33 (1974); cited from earlier work
[3] = system: eicosanoid metabolites in urine; details: oral administration (FIG. 8)
Text: (§1) Langerhans cells, the macrophages of skin, may differ from other macrophages in releasing lesser amounts of eicosanoids other than PGD2.

[4] = system: release of eicosanoids from skin; details: topical niacin (FIG. 7)
Text: as §1

[5] = within days after initiating therapy; cited from earlier work
[6] = system: human circulating monocytes; details: FIG. 4
[7] = system: prostaglandin F2, a metabolite of D; details: cited from earlier work
[8] = system: human macrophage cell line THP-1; test: PG release from THP-1 cells in vitro (Examples 3 and 6); format: cell-based; details: for IC50: Homo sapiens
Text: Indomethacin was used in place of aspirin to inhibit PG production in THP-1 cells in vitro as in Example 3.

[9] = system: flushing induced by nicotinic acid; test: Niacin flushing after bid aspirin pretreatment (Example 2); format: in vivo, human
Experimental: Three subjects were administered 40 mg of aspirin twice daily (i.e., bid) in the morning and evening for three days.

[10] = system: PGD-M, the major urinary metabolite of PGD2; test: Urinary excretion of PGD-M after nicotinic acid (Example 1, FIGS. 1, 2); format: in vivo, human
Experimental: (§2) Two weeks later, the same subjects were administered 40 of mg aspirin for each of four days. […] Urinary excretion of PGD-M was much lower (FIG. 2), confirming the suppressive activity of aspirin on PGD2 release. Release of PGF2 after aspirin pretreatment (40 mg) was approximately 10% of baseline (FIG. 3).

[11] = system: flushing induced by niacin; test: Niacin flushing after sustained release aspirin pretreatment (Example 7); format: in vivo, human
[12] = system: flushing induced by nicotinic acid; test: Rating of flushing by investigator (Example 8); format: in vivo, human; details: number of subjects; n = 14; p < 0.05 (Wilcoxon)
Experimental: (§3) Fourteen healthy male subjects completed the study. After randomization, subjects were given a placebo or 81 mg of aspirin bid for three days. The study was double-blind.
(§4) Room temperature and humidity were constant during the trial.
(§5) Flushing was measured in three ways: (1) quantitatively using laser Doppler, (2) subjectively via questionnaire, and (3) by measuring a biochemical marker of flushing, a stable metabolite of prostaglandin D2. Complete pharmacokinetic parameters in timed blood samples after oral administration were also measured in plasma and urine. Flushing, as measured by continuous and simultaneous recording of cutaneous blood flow on each side of the neck using laser Doppler techniques (Moor Instruments), provides an arbitrary representation of cutaneous blood flow defined as FLUX. Flux is expressed in arbitrary units (AU) from baseline (FLUXpeak-FLUXbaseline; see FIG. 11B). Duration of flush is the time in minutes from the beginning to the end of Flux shift in the DRTSOFT plot.

[13] = system: niacin-induced cutaneous reactions; details: cited from earlier work
[14] = system: flushing induced by nicotinic acid; test: Cutaneous blood flow (FLUX) by laser Doppler, flushing severity and duration (Example 8); format: in vivo, human; details: mean ± S.D., n = 14
Experimental: as §3, §4, §5

[15] = system: platelet aggregation; details: cited from earlier work
[16] = system: PGF2 release; test: PG release following topical nicotinic acid with or without aspirin pretreatment (FIG. 3); format: in vivo, human; details: aspirin pretreatment (40 mg) (FIG. 3)
Experimental: as §2

[17] = system: flushing induced by nicotinic acid; test: Local skin temperature change (Example 8); format: in vivo, human; details: mean ± S.D.; n = 14; p = 0.016 (paired t test)
Experimental: as §3, §4

[18] = system: nicotinic acid-induced flush; details: pretreatment at 4.5 and 0.5 hr; indomethacin 25 or 50 mg/kg; aspirin 50, 100, or 200 mg/kg; cited from earlier work
[19] = system: flushing induced by nicotinic acid; format: in vivo, human
Experimental: Two weeks later, the same subjects were administered 40 of mg aspirin for each of four days.

[20] = system: flushing induced by nicotinic acid; test: Rating of flushing by subject (Example 8); format: in vivo, human; details: number of subjects; n = 14; p < 0.05 (Wilcoxon)
Experimental: as §3, §4, §5

[21] = system: cutaneous flush induced by nicotinic acid; details: 975 mg total: 650 mg at 1 hr and 325 mg at 0.5 hr prior to nicotinic acid; cited from earlier work
[22] = system: PG production in other cell types; details: cited from earlier work
[23] = Physician's Desk Reference, 51st ed.
[24] = 325 mg aspirin 30 minutes prior to niacin
[25] = initial testing, out of 306 patients, over 33 months

## O=C(O)Cc1ccccc1Nc1c(Cl)cccc1Cl [Diclofenac]
[1]; Goodman and Gilman, 9th ed.
  Minimum Anti-inflammatory Dosage: 100 mg

## COc1ccc2cc([C@H](C)C(=O)O)ccc2c1 [naproxen]
[1]; [23]
  Minimum Anti-inflammatory Dosage: 250 mg
[2]
  inhibition of synthesis of PGs such as E2 and F2, concentrations: high micromolar

## CCc1cccc2c3c([nH]c12)C(CC)(CC(=O)O)OCC3 (stereo not shown) [Etodolac]
[1]; Goodman and Gilman, 9th ed.
  Minimum Anti-inflammatory Dosage: 200 mg

## O=C(c1ccccc1)c1ccc2n1CCC2C(=O)O (stereo not shown) [Ketorolac]
[1]; Goodman and Gilman, 9th ed.
  Minimum Anti-inflammatory Dosage: 5 mg

## CC(C(=O)O)c1cccc(Oc2ccccc2)c1 (stereo not shown) [Fenoprofen]
[1]; Goodman and Gilman, 9th ed.
  Minimum Anti-inflammatory Dosage: 300 mg

## CCCCC1C(=O)N(c2ccccc2)N(c2ccccc2)C1=O [phenylbutazone]
[2]
  inhibition of synthesis of PGs such as E2 and F2, concentrations: high micromolar

## O=C(O)c1cccnc1 [niacin, nicotinic acid]
[3]
  metabolites of PGD2 in urine: increased amounts
  metabolites of leukotriene in urine: increased amounts
  metabolites of thromboxane in urine: increased amounts
[4]
  release of 9a, 11b-PGF2: increased the release
  release of thromboxane (TxB2): did not release
[5]
  patients who cease taking nicotinic acid: 30-40 % of patients
[6]
  in vitro release of PGs from human circulating monocytes: stimulate in vitro release of PGs
[7]; after 6 days of continuous, twice daily administration
  level of prostaglandin F2 on repeated administration: decreases markedly
[7]; following administration of niacin
  concentration of prostaglandin F2 in blood coming from the skin: dramatic rise
[8]; FIG. 4
  in vitro release of PGs from THP-1: stimulate in vitro release of PGs
[9]; single 500 mg dose without aspirin, all three subjects
  flushing, nicotinic acid without aspirin: severe flushing
[10]; 500 mg nicotinic acid 1 hour after single 40 mg aspirin, over 7 hours (FIG. 1)
  excretion of PGD-M in urine: significant amounts

## O=C(O)CCc1nc(-c2ccccc2)c(-c2ccccc2)o1 [Oxaprozin]
[1]; Goodman and Gilman, 9th ed.
  Minimum Anti-inflammatory Dosage: 600 mg

## Cc1ccc(C(=O)c2ccc(CC(=O)O)n2C)cc1 [Tolmetin]
[1]; [23]
  Minimum Anti-inflammatory Dosage: 400 mg

## CC(C(=O)O)c1cccc(C(=O)c2ccccc2)c1 (stereo not shown) [Ketoprofen]
[1]; Goodman and Gilman, 9th ed.
  Minimum Anti-inflammatory Dosage: 150 mg

## CC1=C(CC(=O)O)c2cc(F)ccc2/C1=C\c1ccc([S+](C)[O-])cc1 (stereo not shown) [Sulindac]
[1]; Goodman and Gilman, 9th ed.
  Minimum Anti-inflammatory Dosage: 150 mg

## CC(C)Cc1ccc(C(C)C(=O)O)cc1 (stereo not shown) [ibuprofen]
[2]
  inhibition of synthesis of PGs such as E2 and F2, concentrations: high micromolar

## CC(=O)Oc1ccccc1C(=O)O [aspirin]
[11]; 325 mg aspirin 1/2 hour before 500 mg immediate release niacin, third subject
  flushing, aspirin 1/2 hour before niacin, third subject: severe flushing
[11]; 325 mg aspirin 1/2 hour before 500 mg immediate release niacin, two subjects
  flushing, aspirin 1/2 hour before niacin: flushing, though slightly diminished
[11]; 325 mg aspirin 1/2 hour before niacin, compared with SR aspirin for 6 hours, three subjects
  side effects from niacin versus sustained release aspirin predosing: significantly greater side effects
[12]
  Rating of Flushing by Investigator: Mild: 2
  Rating of Flushing by Investigator: Moderate: 3
  Rating of Flushing by Investigator: None: 8
  Rating of Flushing by Investigator: Severe: 1
  Rating of Flushing by Investigator: Very severe: 0
[13]; 80 mg aspirin 30 minutes prior to niacin, compared to placebo
  niacin-associated flushing, warmth, itching and tingling, 80 mg aspirin: even more aggravated flushing, warmth, itching and tingling
[13]; [24]
  niacin-associated warmth, flushing, itching and tingling, 325 mg aspirin: decrease the warmth and flushing associated with niacin, but not the itching and tingling
  patients with flushing and warmth: at least 72 % of the patients
[14]; aspirin 81 mg bid three days then 500 mg nicotinic acid + 81 mg aspirin vs placebo then niacin, p = 0.0001 (paired t test)
  AUCflux: 3022.5 + 2772
[14]; p = 0.002 (paired t test)
  Flushing duration: 15.8 ± 16 min
[15]; [25]
  patients with complete inhibition of platelet aggregation: 288 patients
  patients with partial inhibition of platelet aggregation: 78 patients
[15]; of 52 patients, dosage escalation or fluctuation of response
  patients with initial partial inhibition achieving complete inhibition: 35
[15]; of the 35
  patients reverted to partial inhibition on further testing: 8
[15]; repeat testing, without change in aspirin dosage
  patients converted from complete to partial inhibition: about 33%
[16]
  release of PGF2 after aspirin pretreatment: approximately 10 % of baseline
[17]
  Local T° change: 0.61 ± 0.56 °C
[18]
  inhibition of nicotinic acid-induced flush (increase in ear temperature): inhibited
[8]; THP-1, read-out: IC50, inhibition of niacin-stimulated release of PG from THP-1 cells
  IC50: ~380 nM and ~0.07 µg/mL
[1]; [23]
  Minimum Anti-inflammatory Dosage: 325 mg
[19]; 40 mg aspirin 1 hour prior to 500 mg immediate release nicotinic acid, all three subjects
  subjective sensation: subjective sensation of cutaneous warmth
[19]; 40 mg aspirin 1 hour prior to single 500 mg immediate release nicotinic acid, all three subjects
  flushing: severe flushing
[19]; 40 mg aspirin each of four days, 500 mg nicotinic acid on fourth day 1 hour after aspirin, two of three subjects
  flushing after multi-day aspirin pretreatment: virtually no flushing
[19]; 40 mg aspirin each of four days, 500 mg nicotinic acid on fourth day, third subject
  flushing after multi-day aspirin pretreatment, third subject: some flushing, but less than that encountered previously
[20]
  Rating of Flushing by Subject: Mild: 4
  Rating of Flushing by Subject: Moderate: 1
  Rating of Flushing by Subject: None: 6
  Rating of Flushing by Subject: Severe: 3
  Rating of Flushing by Subject: Very severe: 0
[21]
  reduction of cutaneous flush: significantly reduce cutaneous flush
[9]; 40 mg aspirin bid three days, fourth day 500 mg immediate release nicotinic acid with 40 mg aspirin, three subjects
  flushing, bid aspirin pretreatment: None of the subjects experienced any appreciable flushing
[2]
  inhibition of synthesis of PGs such as E2 and F2, concentrations: high micromolar
[10]; 40 mg aspirin each of four days, 500 mg nicotinic acid on fourth day (FIG. 2)
  urinary excretion of PGD-M after multi-day aspirin: much lower

## COc1ccc2cc(CCC(C)=O)ccc2c1 [Nabumetone]
[1]; [23]
  Minimum Anti-inflammatory Dosage: 500 mg

## COc1ccc2c(c1)c(CC(=O)O)c(C)n2C(=O)c1ccc(Cl)cc1 [indomethacin]
[18]
  inhibition of nicotinic acid-induced flush (increase in ear temperature): inhibited
[8]; THP-1, read-out: IC50, PG production in THP-1 cells
  IC50: ~1 nM
[8]; THP-1 versus other cells
  sensitivity of THP-1 cells relative to other cells: approximately 1000 times
[1]; [23]
  Minimum Anti-inflammatory Dosage: 25 mg
[22]
  inhibitory concentrations on PG production in other cell types: micromolar range
[2]
  inhibition of synthesis of PGs such as E2 and F2, concentrations: high micromolar

## CN1C(C(=O)Nc2ccccn2)=C(O)c2ccccc2S1(=O)=O [Piroxicam]
[1]; [23]
  Minimum Anti-inflammatory Dosage: 10 mg

## CC(C(=O)O)c1ccc(-c2ccccc2)c(F)c1 (stereo not shown) [Flurbiprofen]
[1]; Goodman and Gilman, 9th ed.
  Minimum Anti-inflammatory Dosage: 50 mg

## O=C(O)c1ccccc1Nc1cccc(C(F)(F)F)c1 [flufenamic acid]
[2]
  inhibition of synthesis of PGs such as E2 and F2, concentrations: high micromolar
